Converted amounts (≈) assume the structure as drawn.
How the values were obtained:
Test in all cases: in vitro antibacterial activity, broth microdilution method (CLSI M31-A2), MIC
Assay type in all cases: cell-based
A. pleuropneumoniae = system: A. pleuropneumoniae
Procedure: (§1) The compound obtained in the present invention was measured for its in vitro antibacterial activity by a broth microdilution method in accordance with a CLSI method (formerly NCCLS method, […]-A2) (Performance Standards for Antimicrobial Disk and Dilution Susceptibility Tests for Bacteria Isolated from Animals; Approved Standard-Second Edition NCCLS […]-A2 Vol. 22 No. 6 2002). A medium composition used in the measurement is shown below. […] The resultant test drug solution was further subjected to two-step dilution with the liquid medium shown below to prepare a test drug solution at each concentration level. The thus prepared test drug solution at each concentration level was dispensed into a 96-well microplate at 100 μL/well, and a test bacterial strain was inoculated at about 5×10^4 CFU/well. After having been cultured in the presence of 5% CO2 gas at 37° C. for 20 to 24 hours, the test bacterial strain was visually observed for the presence or absence of its growth. A minimum drug concentration completely inhibiting the growth of the test bacterial strain was defined as a minimum inhibitory concentration (hereinafter referred to as MIC). […] Saponin was dissolved with purified water. The solution was sterilized and then added to defibrinated horse blood.

H. parasuis = system: H. parasuis
Procedure: as §1

H. somni = system: H. somni
Procedure: as §1

M. haemolytica = system: M. haemolytica
Procedure: as §1

P. multocida = system: P. multocida
Procedure: as §1

[1] = A. pleuropneumoniae strain 10895-2R
[2] = A. pleuropneumoniae strain 11684-7R
[3] = A. pleuropneumoniae strain 11796-1R
[4] = A. pleuropneumoniae strain 11804-2R
[5] = A. pleuropneumoniae strain ATCC27089
[6] = P. multocida (bovine) strain 11272R
[7] = P. multocida (bovine) strain 11325-1R
[8] = P. multocida (bovine) strain 11787-24R1
[9] = P. multocida (bovine) strain ATCC43019
[10] = P. multocida (swine) strain 11587-3R
[11] = P. multocida (swine) strain 11745-15R
[12] = P. multocida (swine) strain ATCC43137

Row | SMILES | MIC (A. pleuropneumoniae; [1]) | MIC (A. pleuropneumoniae; [2]) | MIC (A. pleuropneumoniae; [3]) | MIC (A. pleuropneumoniae; [4]) | MIC (A. pleuropneumoniae; [5]) | MIC (H. parasuis; H. parasuis strain 11510-1-2R) | MIC (H. parasuis; H. parasuis strain 11640-1R) | MIC (H. somni; H. somni strain 11321R) | MIC (H. somni; H. somni strain 11423-3R) | MIC (M. haemolytica; M. haemolytica strain 11443R) | MIC (M. haemolytica; M. haemolytica strain 11467-2R) | MIC (P. multocida; [6]) | MIC (P. multocida; [7]) | MIC (P. multocida; [8]) | MIC (P. multocida; [9]) | MIC (P. multocida; [10]) | MIC (P. multocida; [11]) | MIC (P. multocida; [12])
1 | CCC(=O)OC1CC(=O)OC(C)CC(O)C(N(C)CCCc2ccnc3ccccc23)C=CC(OC(C)=O)C(C)CC(CC=O)C(OC2OC(C)C(O)C(N(C)C)C2O)C1OC (stereo not drawn) [(IIIa)] | 4 µg/mL (≈ 4.59 µM) | 16 µg/mL (≈ 18.3 µM) | 4 µg/mL (≈ 4.59 µM) | 4 µg/mL (≈ 4.59 µM) | 4 µg/mL (≈ 4.59 µM) | 0.25 µg/mL (≈ 0.287 µM) | 2 µg/mL (≈ 2.29 µM) | 0.5 µg/mL (≈ 0.573 µM) | 1 µg/mL (≈ 1.15 µM) | 2 µg/mL (≈ 2.29 µM) | 4 µg/mL (≈ 4.59 µM) | 4 µg/mL (≈ 4.59 µM) | 2 µg/mL (≈ 2.29 µM) | 4 µg/mL (≈ 4.59 µM) | 4 µg/mL (≈ 4.59 µM) | 4 µg/mL (≈ 4.59 µM) | 4 µg/mL (≈ 4.59 µM) | 2 µg/mL (≈ 2.29 µM)
2 | CO[C@@H]1C(OC2O[C@@H](C)C(O)C(N(C)C)C2O)[C@@H](CC=O)C[C@@H](C)[C@@H](OC(C)=O)/C=C/[C@@H](N(C)CCCc2ccnc3ccccc23)[C@@H](O)C[C@@H](C)OC(=O)C[C@H]1OC(C)=O (stereo partly drawn) [(IIIb)] | 4 µg/mL (≈ 4.66 µM) | 32 µg/mL (≈ 37.3 µM) | 4 µg/mL (≈ 4.66 µM) | 8 µg/mL (≈ 9.32 µM) | 4 µg/mL (≈ 4.66 µM) | 0.5 µg/mL (≈ 0.583 µM) | 4 µg/mL (≈ 4.66 µM) | 0.5 µg/mL (≈ 0.583 µM) | 1 µg/mL (≈ 1.17 µM) | 4 µg/mL (≈ 4.66 µM) | 4 µg/mL (≈ 4.66 µM) | 4 µg/mL (≈ 4.66 µM) | 2 µg/mL (≈ 2.33 µM) | 4 µg/mL (≈ 4.66 µM) | 4 µg/mL (≈ 4.66 µM) | 4 µg/mL (≈ 4.66 µM) | 4 µg/mL (≈ 4.66 µM) | 4 µg/mL (≈ 4.66 µM)

From US20140039171A1, “NOVEL MACROLIDE INTERMEDIATE AND NOVEL PRODUCTION PROCESS” (MEIJI SEIKA PHARMA CO., LTD., priority 2011, published 2014)
